Ends that are not written are not given here. Where only a bound is given, the exact number is not on record here.

The data set concerns human red blood cells. Put plainly: Hemolytic assay. Type of data set: cell-based. The following applies: human RBCs in PBS, 37°C, 1 h; representative of 4 independent determinations.
On to `CC(C)C[C@H](NC(=O)[C@H](CCCCN)NC(=O)[C@H](C)NC(=O)[C@H](CC(C)C)NC(=O)[C@H](CCCCN)NC(=O)[C@H](CCCCN)NC(=O)[C@H](C)NC(=O)[C@H](CC(C)C)NC(=O)[C@H](CCCCN)NC(=O)[C@H](C)NC(=O)[C@H](CC(C)C)NC(=O)[C@@H](N)CCCCN)C(=O)N[C@@H](C)C(=O)N[C@@H](CCCCN)C(N)=O` [PAP], for which the “HD10 (peptide concentration that results in lysis of 10% red blood cells)” value is listed as 64 μm.

Turning to GGHGLLKRIKTLL-NH2 [GGH–anoplin], the “HD10 (peptide concentration that results in lysis of 10% red blood cells)” value was found to be 16 μm.

For GLLKRIKTLL-NH2 [Anoplin], the “HD10 (peptide concentration that results in lysis of 10% red blood cells)” value is greater than 64 μm.

As for RAGLQFPVGRVHRLLRK-NH2 [sh-Buforin], the “HD10 (peptide concentration that results in lysis of 10% red blood cells)” value is 64 μm.

The values above are taken from publication PMC4440792 (ChemMedChem, 2014).
